The source of these data is PubChem BioAssay AID1259407 (Chemical Carcinogenesis Research Information System (CCRIS), 2018).

The series deals with CCRIS mutagenicity, Ames/micronucleus/aberration tests. Put plainly: CCRIS mutagenicity studies.

Active and inactive are the calls of the source. How the calls were made is not given here.

With `COc1cccc2c1ccc1c(C(=O)O)cc3c(c12)OCO3`, the mutagenic call was “inactive; negative” (Test System: AMES SALMONELLA TYPHIMURIUM, Strain/Indicator: D3052, Metabolic Activation: NONE, Method: STANDARD PLATE); “inactive; negative” (Test System: AMES SALMONELLA TYPHIMURIUM, Strain/Indicator: D3052, Metabolic Activation: RAT, LIVER, S-9, PHENOBARBITAL, Method: STANDARD PLATE); “inactive; negative” (Test System: AMES SALMONELLA TYPHIMURIUM, Strain/Indicator: G46, Metabolic Activation: NONE, Method: STANDARD PLATE); “inactive; negative” (Test System: AMES SALMONELLA TYPHIMURIUM, Strain/Indicator: G46, Metabolic Activation: RAT, LIVER, S-9, PHENOBARBITAL, Method: STANDARD PLATE); “active; positive” (Test System: AMES SALMONELLA TYPHIMURIUM, Strain/Indicator: TA98(NR), Metabolic Activation: NONE, Method: STANDARD PLATE); “inactive; negative” (Test System: AMES SALMONELLA TYPHIMURIUM, Strain/Indicator: TA98, Metabolic Activation: RAT, LIVER, S-9, PHENOBARBITAL, Method: STANDARD PLATE). Also, the mutagenic call is, setting by setting: (Test System: AMES SALMONELLA TYPHIMURIUM, Strain/Indicator: TA100(NR), Metabolic Activation: NONE, Method: STANDARD PLATE) “active; positive”; (Test System: AMES SALMONELLA TYPHIMURIUM, Strain/Indicator: TA100, Metabolic Activation: RAT, LIVER, S-9, PHENOBARBITAL, Method: STANDARD PLATE) “inactive; negative”; (Test System: AMES SALMONELLA TYPHIMURIUM, Strain/Indicator: TA102, Metabolic Activation: NONE, Method: STANDARD PLATE) “active; positive”; (Test System: AMES SALMONELLA TYPHIMURIUM, Strain/Indicator: TA1535, Metabolic Activation: NONE, Method: STANDARD PLATE) “inactive; negative”; (Test System: AMES SALMONELLA TYPHIMURIUM, Strain/Indicator: TA1535, Metabolic Activation: RAT, LIVER, S-9, PHENOBARBITAL, Method: STANDARD PLATE) “inactive; negative”; (Test System: AMES SALMONELLA TYPHIMURIUM, Strain/Indicator: TA1978, Metabolic Activation: NONE, Method: STANDARD PLATE) “inactive; negative”. Besides, the mutagenic call reads like this: (Test System: AMES SALMONELLA TYPHIMURIUM, Strain/Indicator: TA1978, Metabolic Activation: RAT, LIVER, S-9, PHENOBARBITAL, Method: STANDARD PLATE) “inactive; negative”; (Test System: AMES SALMONELLA TYPHIMURIUM, Strain/Indicator: TM677/8-AZAGUANINE, Metabolic Activation: NONE, Method: SUSPENSION/PLATE) “active; positive”; (Test System: AMES SALMONELLA TYPHIMURIUM, Strain/Indicator: YG1021, Metabolic Activation: NONE, Method: STANDARD PLATE) “inactive; negative”; (Test System: AMES SALMONELLA TYPHIMURIUM, Strain/Indicator: YG1026, Metabolic Activation: NONE, Method: STANDARD PLATE) “inactive; negative”; (Test System: CHINESE HAMSTER OVARY, Strain/Indicator: CHO-K1-BH4 (HGPRT), Metabolic Activation: NONE) “active; positive”.
`O[C@H]1C=Cc2c(ccc3c(Cl)c4ccccc4cc23)[C@@H]1O`: the mutagenic call (Test System: AMES SALMONELLA TYPHIMURIUM, Strain/Indicator: TA100, Metabolic Activation: RAT, LIVER, S-9, PCB, Method: STANDARD PLATE) was “active; positive”.
For the compound `c1ccncc1`, the mutagenic call reads like this: (Test System: AMES SALMONELLA TYPHIMURIUM, Strain/Indicator: TA98, Metabolic Activation: HAMSTER LIVER S-9, AROCLOR 1254, 10%, Method: PREINCUBATION) “inactive; negative”; (Test System: AMES SALMONELLA TYPHIMURIUM, Strain/Indicator: TA98, Metabolic Activation: NONE, Method: PREINCUBATION) “inactive; negative”; (Test System: AMES SALMONELLA TYPHIMURIUM, Strain/Indicator: TA98, Metabolic Activation: RAT LIVER S-9, AROCLOR 1254, 10%, Method: PREINCUBATION) “inactive; negative”; (Test System: AMES SALMONELLA TYPHIMURIUM, Strain/Indicator: TA98, Metabolic Activation: RAT LIVER S-9, PHENOBARBITAL AND BETA-NAPHTHOFLAVONE, Method: PREINCUBATION) “inactive; negative”; (Test System: AMES SALMONELLA TYPHIMURIUM, Strain/Indicator: TA98, Metabolic Activation: RAT, LIVER, S-9, AROCLOR 1254, Method: PREINCUBATION) “inactive; negative”; (Test System: AMES SALMONELLA TYPHIMURIUM, Strain/Indicator: TA100, Metabolic Activation: HAMSTER LIVER S-9, AROCLOR 1254, 10%, Method: PREINCUBATION) “inactive; negative”. For the same compound, the mutagenic call is “inactive; negative” (Test System: AMES SALMONELLA TYPHIMURIUM, Strain/Indicator: TA100, Metabolic Activation: NONE, Method: PREINCUBATION); “inactive; negative” (Test System: AMES SALMONELLA TYPHIMURIUM, Strain/Indicator: TA100, Metabolic Activation: RAT LIVER S-9, AROCLOR 1254, 10%, Method: PREINCUBATION); “inactive; negative” (Test System: AMES SALMONELLA TYPHIMURIUM, Strain/Indicator: TA100, Metabolic Activation: RAT LIVER S-9, PHENOBARBITAL AND BETA-NAPHTHOFLAVONE, Method: PREINCUBATION); “inactive; negative” (Test System: AMES SALMONELLA TYPHIMURIUM, Strain/Indicator: TA100, Metabolic Activation: RAT, LIVER, S-9, AROCLOR 1254, Method: PREINCUBATION); “inactive; negative” (Test System: AMES SALMONELLA TYPHIMURIUM, Strain/Indicator: TA102, Metabolic Activation: NONE, Method: PREINCUBATION); “inactive; negative” (Test System: AMES SALMONELLA TYPHIMURIUM, Strain/Indicator: TA102, Metabolic Activation: RAT, LIVER, S-9, AROCLOR 1254, Method: PREINCUBATION). The mutagenic call is “inactive; negative” (Test System: AMES SALMONELLA TYPHIMURIUM, Strain/Indicator: TA1535, Metabolic Activation: HAMSTER LIVER S-9, AROCLOR 1254, 10%, Method: PREINCUBATION); “inactive; negative” (Test System: AMES SALMONELLA TYPHIMURIUM, Strain/Indicator: TA1535, Metabolic Activation: NONE, Method: PREINCUBATION); “inactive; negative” (Test System: AMES SALMONELLA TYPHIMURIUM, Strain/Indicator: TA1535, Metabolic Activation: RAT LIVER S-9, AROCLOR 1254, 10%, Method: PREINCUBATION); “inactive; negative” (Test System: AMES SALMONELLA TYPHIMURIUM, Strain/Indicator: TA1535, Metabolic Activation: RAT LIVER S-9, PHENOBARBITAL AND BETA-NAPHTHOFLAVONE, Method: PREINCUBATION); “inactive; negative” (Test System: AMES SALMONELLA TYPHIMURIUM, Strain/Indicator: TA1537, Metabolic Activation: HAMSTER LIVER S-9, AROCLOR 1254, 10%, Method: PREINCUBATION); “inactive; negative” (Test System: AMES SALMONELLA TYPHIMURIUM, Strain/Indicator: TA1537, Metabolic Activation: NONE, Method: PREINCUBATION). Also, the mutagenic call is, setting by setting: (Test System: AMES SALMONELLA TYPHIMURIUM, Strain/Indicator: TA1537, Metabolic Activation: RAT LIVER S-9, AROCLOR 1254, 10%, Method: PREINCUBATION) “inactive; negative”; (Test System: AMES SALMONELLA TYPHIMURIUM, Strain/Indicator: TA1537, Metabolic Activation: RAT LIVER S-9, PHENOBARBITAL AND BETA-NAPHTHOFLAVONE, Method: PREINCUBATION) “inactive; negative”; (Test System: E.COLI, Strain/Indicator: WP2UVRA, Metabolic Activation: NONE, Method: PREINCUBATION) “inactive; negative”; (Test System: E.COLI, Strain/Indicator: WP2UVRA, Metabolic Activation: RAT LIVER S-9, PHENOBARBITAL AND BETA-NAPHTHOFLAVONE, Method: PREINCUBATION) “inactive; negative”; (Test System: MOUSE LYMPHOMA, Strain/Indicator: L5178Y (TK+/TK-), Metabolic Activation: NONE, Method: SUSPENSION/PLATE) “inactive; negative”; (Test System: MOUSE LYMPHOMA, Strain/Indicator: L5178Y (TK+/TK-), Metabolic Activation: RAT LIVER S-9, AROCLOR 1254, Method: SUSPENSION/PLATE) “inactive; negative”. The mutagenic call (Test System: UDS MOUSE HEPATOCYTES, Strain/Indicator: THYMIDINE INCORPORATION, Metabolic Activation: NONE, Method: IN VIVO/AUTORADIOGRAPHY) was “inactive; negative”.
Consider `O=C1C=C(Cl)C(=O)C1(Cl)Cl`, for which, for the setting “Test System: AMES SALMONELLA TYPHIMURIUM, Strain/Indicator: TA100, Metabolic Activation: NONE, Method: STANDARD PLATE”, the mutagenic call is “active; positive”.
On to `O[C@@H]1[C@H]2O[C@H]2c2cc3c(ccc4ccccc43)cc2[C@H]1O`, for which, under “Test System: CHINESE HAMSTER V-79, Strain/Indicator: V-79/8-AZAGUANINE, Metabolic Activation: NONE, Method: STANDARD PLATE”, the mutagenic call is “active; positive”.
Take `CNC(=O)OCc1nc(SC)n(C)c1COC(=O)NC`: the mutagenic call was “active; positive” (Test System: Mouse lymphoma, Strain/Indicator: L5178Y (tk+/tk-), Metabolic Activation: None, Method: Suspension/plate) and “active; positive” (Test System: Mouse lymphoma, Strain/Indicator: L5178Y (tk+/tk-), Metabolic Activation: Rat, Liver, S-9, Aroclor 1254, Method: Suspension/plate).
